# Assay results from ChEMBL document CHEMBL1201862, “PubChem BioAssay data set” (2004).
# Calls of active or inactive are those of the source.
# Columns and labels:
# [1] = target: Luciferin 4-monooxygenase (Photinus pyralis, UniProt P08659); test: Counter Screen for Luciferase-based Assay Positives. [Related pubchem assays: 620, 618, 411 ]
# [2] = target: T1, Heat shock factor protein 1 (Mus musculus, UniProt P38532); test: decrease of HSF1-responsive luciferase luminescence – cell-based, NIH3T3, dose retest, confirmation (AID 2382); format: functional;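 note: NIH3T3 fibroblasts with HSF1-driven luciferase reporter stressed by proteasome inhibitor MG132; luminescence from HSF1-driven luciferase expression after 8 hours of MG132 stress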
# T1 sequence (P38532 whole entry): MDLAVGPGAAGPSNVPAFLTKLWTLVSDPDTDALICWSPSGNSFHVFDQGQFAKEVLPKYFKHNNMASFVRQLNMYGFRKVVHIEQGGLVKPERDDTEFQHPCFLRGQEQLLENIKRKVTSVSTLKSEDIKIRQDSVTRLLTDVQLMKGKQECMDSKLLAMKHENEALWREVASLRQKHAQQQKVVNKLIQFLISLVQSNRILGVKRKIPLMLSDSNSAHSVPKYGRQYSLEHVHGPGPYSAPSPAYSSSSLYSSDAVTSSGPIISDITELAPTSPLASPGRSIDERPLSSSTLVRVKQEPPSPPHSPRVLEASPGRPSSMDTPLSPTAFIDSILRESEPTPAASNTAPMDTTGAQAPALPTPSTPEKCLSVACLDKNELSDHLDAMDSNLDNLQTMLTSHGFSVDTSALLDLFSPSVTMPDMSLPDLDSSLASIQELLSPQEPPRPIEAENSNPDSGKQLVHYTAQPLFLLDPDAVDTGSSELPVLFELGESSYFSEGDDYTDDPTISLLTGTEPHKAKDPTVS
# [3] = Luminescence Cell-Based Dose Response HTS to Identify Inhibitors of 5'UTR Stem-Loop Driven Prion Protein mRNA Translation in H4 Neuroglioblastoma Cells. [Related pubchem assays: 1827 (Project Summary), 1813 (Primary HTS)]; format: functional
# [4] = alpha-synuclein stem-loop translation blockers – luminescence, H4 neuroglioblastoma cells, dose confirmation, confirmation (AID 2454); format: functional, cell-based;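 note: H4 neuroglioblastoma cells carrying an alpha-synuclein 5'UTR luciferase reporter; potency for inhibition of the luciferase signal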
# [5] = cells; format: functional, cell-based
# [6] = alpha-synuclein stem-loop luciferase translation blockers – H4 neuroglioma cells, luminescence, confirmation (AID 1988); format: functional, cell-based
# [7] = target: E3 ubiquitin-protein ligase Mdm2/Protein Mdm4 (Homo sapiens, UniProt O15151+Q00987); test: disruption of Mdm2/MdmX protein binding – luminescence detection, dose response (AID 504593); format: functional
# E3 ubiquitin-protein ligase Mdm2/Protein Mdm4, sequence (Q00987 whole entry): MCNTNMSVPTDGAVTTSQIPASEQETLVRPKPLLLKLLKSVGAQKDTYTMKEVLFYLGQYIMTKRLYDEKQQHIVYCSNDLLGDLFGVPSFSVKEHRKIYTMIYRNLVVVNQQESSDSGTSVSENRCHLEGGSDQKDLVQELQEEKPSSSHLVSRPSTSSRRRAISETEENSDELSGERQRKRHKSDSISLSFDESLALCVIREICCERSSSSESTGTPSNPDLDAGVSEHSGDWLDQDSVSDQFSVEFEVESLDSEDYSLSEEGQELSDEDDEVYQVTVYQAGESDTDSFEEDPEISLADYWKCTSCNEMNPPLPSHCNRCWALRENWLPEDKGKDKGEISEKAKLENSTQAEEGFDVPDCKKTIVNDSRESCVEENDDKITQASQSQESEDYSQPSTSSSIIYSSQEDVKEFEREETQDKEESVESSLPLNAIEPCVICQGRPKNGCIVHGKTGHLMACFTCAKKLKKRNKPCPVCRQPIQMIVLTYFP
# E3 ubiquitin-protein ligase Mdm2/Protein Mdm4, sequence (O15151 whole entry): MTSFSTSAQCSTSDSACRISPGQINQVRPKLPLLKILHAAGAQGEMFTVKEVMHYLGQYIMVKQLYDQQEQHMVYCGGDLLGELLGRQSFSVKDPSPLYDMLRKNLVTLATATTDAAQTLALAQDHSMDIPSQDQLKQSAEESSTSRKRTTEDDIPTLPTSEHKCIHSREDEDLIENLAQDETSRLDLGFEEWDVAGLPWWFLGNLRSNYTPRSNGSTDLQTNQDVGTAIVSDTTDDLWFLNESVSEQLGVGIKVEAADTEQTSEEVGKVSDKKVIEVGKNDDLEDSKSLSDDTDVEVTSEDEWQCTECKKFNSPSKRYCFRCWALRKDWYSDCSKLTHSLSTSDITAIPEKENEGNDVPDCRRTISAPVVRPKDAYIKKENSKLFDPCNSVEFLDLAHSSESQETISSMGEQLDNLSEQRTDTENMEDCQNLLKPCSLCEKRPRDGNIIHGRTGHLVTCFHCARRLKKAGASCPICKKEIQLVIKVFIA
# [8] = luciferase reporter signal suppression in cells – H4 neuroglioma cells, luminescence, dose response (AID 1990); format: functional, cell-based
# [9] = luciferase reporter signal reduction – luminescence, H4-C neuroglioblastoma cells, dose response (AID 2458); format: functional, cell-based;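 note: H4 neuroglioblastoma cells stably carrying a luciferase reporter gene fusion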
# [10] = HEK-293T viability loss after treatment – luminescence, T-cell screen hits, cytotoxicity control for TCR NF-kB inhibitor project, dose response (AID 489026); format: functional, cell-based;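 note: cells exposed to compound about 14 hours before the viability readout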
# [11] = system: HT-1080; test: HT1080 cell viability loss – fluorescence readout (AID 620); format: functional, cell-based; conditions: Homo sapiens
# [12] = target: T2, Probable nicotinate-nucleotide adenylyltransferase (Staphylococcus aureus (strain N315), UniProt P65502); format: functional, Staphylococcus aureus subsp. aureus N315; conditions: read-out: IC50_Mean;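 for IC50 Mean: confirmatory dose-response retesting of NadD inhibitor hits first found in an ultra-high-throughput screen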
# T2 sequence (P65502 whole entry): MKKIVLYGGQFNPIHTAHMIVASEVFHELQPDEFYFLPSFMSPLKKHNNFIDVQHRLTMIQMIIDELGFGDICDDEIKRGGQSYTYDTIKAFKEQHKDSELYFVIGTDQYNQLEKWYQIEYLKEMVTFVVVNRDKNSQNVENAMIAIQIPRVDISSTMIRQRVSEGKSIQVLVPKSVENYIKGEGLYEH
# [13] = target: Genome polyprotein (dengue virus type 2, UniProt P29990); test: flavivirus cap methylation enzyme inhibition – biochemical, confirmation dose response, primary screen (AID 588689); format: functional
# Genome polyprotein, sequence (P29990 2492-3391 limits assumed): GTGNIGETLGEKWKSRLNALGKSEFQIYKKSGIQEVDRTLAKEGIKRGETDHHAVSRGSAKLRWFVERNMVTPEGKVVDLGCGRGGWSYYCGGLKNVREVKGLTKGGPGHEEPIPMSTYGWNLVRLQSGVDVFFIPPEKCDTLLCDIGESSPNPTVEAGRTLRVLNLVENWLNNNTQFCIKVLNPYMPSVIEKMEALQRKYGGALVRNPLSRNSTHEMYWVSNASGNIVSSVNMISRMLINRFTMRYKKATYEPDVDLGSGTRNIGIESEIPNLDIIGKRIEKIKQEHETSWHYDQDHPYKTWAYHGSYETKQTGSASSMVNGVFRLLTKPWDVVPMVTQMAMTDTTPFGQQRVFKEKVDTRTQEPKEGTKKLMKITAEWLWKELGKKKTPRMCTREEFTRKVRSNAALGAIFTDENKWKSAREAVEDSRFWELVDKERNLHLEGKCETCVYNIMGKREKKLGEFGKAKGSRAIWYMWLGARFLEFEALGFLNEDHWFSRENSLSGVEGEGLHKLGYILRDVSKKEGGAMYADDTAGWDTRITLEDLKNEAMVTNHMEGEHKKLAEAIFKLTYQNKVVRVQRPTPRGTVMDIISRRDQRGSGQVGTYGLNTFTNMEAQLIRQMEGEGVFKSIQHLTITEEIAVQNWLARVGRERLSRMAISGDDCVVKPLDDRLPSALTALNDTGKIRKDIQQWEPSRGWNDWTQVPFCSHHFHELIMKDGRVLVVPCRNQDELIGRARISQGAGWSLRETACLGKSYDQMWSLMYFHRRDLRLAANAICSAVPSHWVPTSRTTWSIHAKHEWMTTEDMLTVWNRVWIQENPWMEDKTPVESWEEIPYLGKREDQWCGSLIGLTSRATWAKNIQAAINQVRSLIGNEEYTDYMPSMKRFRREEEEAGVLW
# [14] = target: Envelope glycoprotein gp160 (Human immunodeficiency virus 1, UniProt Q6QLK5); test: cell-free HIV fusion peptide-binding blockers – biochemical, uHTS, fluorescence dequenching, […] (AID 1986)
# Envelope glycoprotein gp160, sequence (Q6QLK5 whole entry, the tested form may be a part): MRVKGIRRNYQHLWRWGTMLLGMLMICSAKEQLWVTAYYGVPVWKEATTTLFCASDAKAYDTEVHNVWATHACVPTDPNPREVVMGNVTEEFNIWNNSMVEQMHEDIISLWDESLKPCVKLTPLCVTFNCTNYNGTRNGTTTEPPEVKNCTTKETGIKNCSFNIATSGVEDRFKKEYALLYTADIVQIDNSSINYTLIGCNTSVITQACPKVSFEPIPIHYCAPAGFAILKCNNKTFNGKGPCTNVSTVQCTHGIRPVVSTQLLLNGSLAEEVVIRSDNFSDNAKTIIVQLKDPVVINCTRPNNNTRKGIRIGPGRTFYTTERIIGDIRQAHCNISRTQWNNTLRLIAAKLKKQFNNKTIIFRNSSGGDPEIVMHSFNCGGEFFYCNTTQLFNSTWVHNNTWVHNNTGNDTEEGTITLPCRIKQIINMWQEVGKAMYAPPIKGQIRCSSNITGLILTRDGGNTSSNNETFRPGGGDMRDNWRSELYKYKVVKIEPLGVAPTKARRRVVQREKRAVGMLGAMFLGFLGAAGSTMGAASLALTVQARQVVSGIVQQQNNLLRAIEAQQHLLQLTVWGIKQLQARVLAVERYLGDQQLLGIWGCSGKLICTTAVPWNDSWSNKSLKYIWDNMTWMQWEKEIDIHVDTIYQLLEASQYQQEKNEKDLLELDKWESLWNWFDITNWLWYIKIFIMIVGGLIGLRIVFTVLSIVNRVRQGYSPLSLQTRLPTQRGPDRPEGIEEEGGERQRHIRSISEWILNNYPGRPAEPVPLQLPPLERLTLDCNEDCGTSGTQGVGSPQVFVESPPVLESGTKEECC
# [15] = target: T2, Probable nicotinate-nucleotide adenylyltransferase; format: functional, Staphylococcus aureus subsp. aureus N315
# [16] = target: T3, Aminopeptidase N (Plasmodium falciparum FcB1/Columbia, UniProt O96935); test: malaria alanyl aminopeptidase activity blockers – biochemical, fluorogenic H-Leu-NHMec substrate, 1536-well (AID 1445); parameters: species or system Plasmodium falciparum 3D7, 3D7
# T3 sequence (O96935 whole entry): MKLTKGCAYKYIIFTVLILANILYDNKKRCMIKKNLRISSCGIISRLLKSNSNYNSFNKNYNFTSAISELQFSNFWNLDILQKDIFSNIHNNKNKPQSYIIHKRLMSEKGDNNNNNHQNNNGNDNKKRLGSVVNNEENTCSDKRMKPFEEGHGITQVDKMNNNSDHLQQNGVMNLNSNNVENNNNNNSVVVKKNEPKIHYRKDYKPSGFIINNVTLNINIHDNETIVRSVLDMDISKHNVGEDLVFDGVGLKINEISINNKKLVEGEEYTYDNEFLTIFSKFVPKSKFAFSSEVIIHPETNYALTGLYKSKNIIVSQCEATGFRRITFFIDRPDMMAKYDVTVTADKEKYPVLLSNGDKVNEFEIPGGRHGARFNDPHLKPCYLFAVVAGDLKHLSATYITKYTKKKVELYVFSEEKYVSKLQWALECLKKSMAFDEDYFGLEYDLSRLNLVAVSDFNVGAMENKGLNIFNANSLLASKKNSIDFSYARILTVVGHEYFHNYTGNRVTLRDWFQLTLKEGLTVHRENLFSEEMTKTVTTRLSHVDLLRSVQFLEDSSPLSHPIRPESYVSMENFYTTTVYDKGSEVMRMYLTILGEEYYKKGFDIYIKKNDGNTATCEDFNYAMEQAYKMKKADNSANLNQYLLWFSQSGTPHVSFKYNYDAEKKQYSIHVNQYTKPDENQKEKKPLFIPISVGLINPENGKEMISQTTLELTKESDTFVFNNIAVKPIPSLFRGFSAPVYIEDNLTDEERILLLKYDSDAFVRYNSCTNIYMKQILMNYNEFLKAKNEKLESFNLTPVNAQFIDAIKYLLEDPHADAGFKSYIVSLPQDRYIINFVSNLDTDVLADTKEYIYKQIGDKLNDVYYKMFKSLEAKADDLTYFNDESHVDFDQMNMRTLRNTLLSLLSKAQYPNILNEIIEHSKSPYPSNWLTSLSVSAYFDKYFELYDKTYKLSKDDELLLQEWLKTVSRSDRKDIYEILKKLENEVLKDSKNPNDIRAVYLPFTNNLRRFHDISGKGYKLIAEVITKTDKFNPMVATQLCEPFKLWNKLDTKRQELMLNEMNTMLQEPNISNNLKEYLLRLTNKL
# [17] = target: Alkaline phosphatase, placental type (Homo sapiens, UniProt P05187); test: human placental alkaline phosphatase inhibition – biochemical, luminescence, confirmation (AID 1512); format: functional
# Alkaline phosphatase, placental type, sequence (P05187 whole entry): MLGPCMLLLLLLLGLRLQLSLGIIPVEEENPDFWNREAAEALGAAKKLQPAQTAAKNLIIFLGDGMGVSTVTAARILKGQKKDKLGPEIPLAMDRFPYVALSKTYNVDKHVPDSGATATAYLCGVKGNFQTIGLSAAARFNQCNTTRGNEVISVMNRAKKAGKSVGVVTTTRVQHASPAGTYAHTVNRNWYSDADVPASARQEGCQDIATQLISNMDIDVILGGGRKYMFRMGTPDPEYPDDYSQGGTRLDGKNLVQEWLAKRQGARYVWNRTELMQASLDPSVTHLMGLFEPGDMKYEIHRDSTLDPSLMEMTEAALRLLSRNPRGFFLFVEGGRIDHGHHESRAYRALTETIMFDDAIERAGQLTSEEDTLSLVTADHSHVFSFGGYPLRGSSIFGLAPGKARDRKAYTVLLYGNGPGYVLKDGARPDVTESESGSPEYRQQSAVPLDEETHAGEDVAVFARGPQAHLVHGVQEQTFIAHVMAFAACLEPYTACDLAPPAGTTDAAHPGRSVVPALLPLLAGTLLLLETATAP
# [18] = target: Large T antigen (Simian virus 40, UniProt P03070); format: functional, Betapolyomavirus macacae;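 note: Confirmatory-stage PubChem screen for compounds that inhibit SV40 T antigen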
# Large T antigen, sequence (P03070 whole entry): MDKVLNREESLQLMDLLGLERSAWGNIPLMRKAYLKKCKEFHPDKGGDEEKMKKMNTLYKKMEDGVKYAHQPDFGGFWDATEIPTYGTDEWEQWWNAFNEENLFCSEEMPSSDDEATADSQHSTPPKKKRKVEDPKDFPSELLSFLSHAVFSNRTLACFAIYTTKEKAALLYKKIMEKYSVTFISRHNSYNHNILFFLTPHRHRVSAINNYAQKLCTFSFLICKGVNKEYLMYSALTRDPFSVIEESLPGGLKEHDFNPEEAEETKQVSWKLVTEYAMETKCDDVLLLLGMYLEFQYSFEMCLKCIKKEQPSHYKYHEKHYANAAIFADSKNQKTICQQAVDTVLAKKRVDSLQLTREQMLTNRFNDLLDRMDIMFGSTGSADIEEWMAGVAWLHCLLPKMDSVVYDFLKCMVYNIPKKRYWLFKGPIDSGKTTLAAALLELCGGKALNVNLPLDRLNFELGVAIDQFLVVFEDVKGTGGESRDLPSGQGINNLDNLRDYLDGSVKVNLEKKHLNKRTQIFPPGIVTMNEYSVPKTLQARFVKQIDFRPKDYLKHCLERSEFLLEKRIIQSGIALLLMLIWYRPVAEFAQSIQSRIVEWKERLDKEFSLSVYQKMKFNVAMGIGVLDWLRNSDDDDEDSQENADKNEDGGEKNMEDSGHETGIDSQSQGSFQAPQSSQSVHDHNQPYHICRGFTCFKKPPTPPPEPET
# [19] = target: Glyceraldehyde-3-phosphate dehydrogenase (Homo sapiens, UniProt P04406)
# Glyceraldehyde-3-phosphate dehydrogenase, sequence (P04406 whole entry): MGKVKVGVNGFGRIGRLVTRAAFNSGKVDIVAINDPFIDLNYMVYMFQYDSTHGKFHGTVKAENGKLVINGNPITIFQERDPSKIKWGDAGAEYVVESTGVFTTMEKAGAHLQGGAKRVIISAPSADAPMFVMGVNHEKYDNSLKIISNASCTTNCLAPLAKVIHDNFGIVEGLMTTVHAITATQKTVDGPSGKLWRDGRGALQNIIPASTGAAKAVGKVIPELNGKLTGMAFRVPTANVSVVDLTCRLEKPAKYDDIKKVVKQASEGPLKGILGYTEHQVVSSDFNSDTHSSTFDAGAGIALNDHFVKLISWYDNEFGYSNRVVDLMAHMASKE
# [20] = target: T4, Alkaline phosphatase, tissue-nonspecific isozyme (Homo sapiens, UniProt P05186); test: potency against alkaline phosphatase TNAP – biochemical, luminescent, dose response, SAR follow-up (AID 1056)
# T4 sequence (P05186 whole entry): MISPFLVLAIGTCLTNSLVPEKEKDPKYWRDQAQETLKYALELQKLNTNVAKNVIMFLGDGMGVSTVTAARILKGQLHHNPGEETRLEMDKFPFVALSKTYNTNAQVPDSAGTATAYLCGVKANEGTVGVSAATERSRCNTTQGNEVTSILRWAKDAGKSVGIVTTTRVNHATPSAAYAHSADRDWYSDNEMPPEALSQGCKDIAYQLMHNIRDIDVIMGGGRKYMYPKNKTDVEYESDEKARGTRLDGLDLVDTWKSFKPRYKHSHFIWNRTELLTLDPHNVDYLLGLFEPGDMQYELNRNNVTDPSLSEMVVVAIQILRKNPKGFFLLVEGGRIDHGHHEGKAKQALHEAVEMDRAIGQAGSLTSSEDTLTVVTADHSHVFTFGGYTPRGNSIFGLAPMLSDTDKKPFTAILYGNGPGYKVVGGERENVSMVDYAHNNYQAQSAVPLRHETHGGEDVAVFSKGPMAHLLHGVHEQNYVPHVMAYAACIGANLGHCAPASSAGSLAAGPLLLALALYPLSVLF
# [21] = target: DNA dC->dU-editing enzyme APOBEC-3A (Homo sapiens, UniProt P31941); test: Dose Response confirmation of small molecule APOBEC3A DNA Deaminase Inhibitors via a fluorescence-based single-stranded DNA deaminase assay. [Related pubchem assays (depositor defined):AID493011, AID493024]; format: functional
# [22] = target: DNA dC->dU-editing enzyme APOBEC-3G (Homo sapiens, UniProt Q9HC16); format: functional;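 note: Dose-response counterscreen measuring inhibition of APOBEC3G DNA deaminase activity, run while confirming APOBEC3A inhibitors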
# Luciferin 4-monooxygenase, sequence (P08659 whole entry): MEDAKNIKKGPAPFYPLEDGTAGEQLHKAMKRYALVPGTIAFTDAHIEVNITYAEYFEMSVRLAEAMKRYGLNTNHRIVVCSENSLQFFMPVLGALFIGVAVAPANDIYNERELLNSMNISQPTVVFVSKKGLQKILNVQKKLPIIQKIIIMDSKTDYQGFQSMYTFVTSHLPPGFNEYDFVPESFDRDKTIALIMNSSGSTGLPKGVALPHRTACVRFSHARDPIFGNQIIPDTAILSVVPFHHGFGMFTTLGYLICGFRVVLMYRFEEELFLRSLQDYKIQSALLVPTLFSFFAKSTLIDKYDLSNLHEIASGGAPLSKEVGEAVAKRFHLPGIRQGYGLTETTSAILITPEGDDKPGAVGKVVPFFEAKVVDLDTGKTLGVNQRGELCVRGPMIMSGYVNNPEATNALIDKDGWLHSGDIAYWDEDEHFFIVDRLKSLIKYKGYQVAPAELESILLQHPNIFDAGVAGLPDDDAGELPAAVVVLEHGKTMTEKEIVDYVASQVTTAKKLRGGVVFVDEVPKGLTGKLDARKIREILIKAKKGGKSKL
structure (smiles),measurement,setting,value
COCCn1c(C)cc(C2=NN=C(Nc3ccccc3F)SC2)c1C,EC50,[1],2.67 µM (active)
same,EC50,[2],< 0.16 µM (active)
same,EC50,[3],< 0.1 µM (active)
same,EC50,[4],1.69 µM (active)
same,EC50,[5],> 12 µM (not active)
same,EC50,[6],< 0.1 µM (active)
same,IC50,[7],1.33 µM (active)
same,EC50,[8],8.18 µM (active)
same,EC50,[9],1.3 µM (active)
same,IC50,[10],> 80 µM (inactive)
same,EC50,[11],> 50 µM (not active)
CCc1nnc(NS(=O)(=O)c2ccc(NC(=S)NC(=O)/C=C/c3ccc(F)cc3)cc2)s1,IC50,[12],45.4 µM (active)
same,IC50,[13],39.3 µM (active)
same,IC50,[14],18.3 µM (active)
same,IC50,[15],4.58 µM (active)
same,IC50,[16],76.7 µM (active)
COCc1cc(C)nc(SCC(=O)c2ccc(O)c(O)c2)c1C#N,IC50,[17],2.16 µM (active)
same,IC50,[18],3.71 µM (active)
Cc1n[nH]c2c1C(=O)CC(C)(C)C2,IC50,[19],> 100 µM (not active)
same,IC50,[20],19.9 µM (active)
same,IC50,[17],> 100 µM (inactive)
Cc1ccc(C(=O)Nc2cc(Cl)ccc2-n2cncn2)o1,IC50,[21],85 µM (active)
same,IC50,[22],20.5 µM (active)
